Laboratory results reported in patent US12077503B2, “Substituted cyclic amides and their use as herbicides” (FMC CORPORATION, priority 2015, dated 2024).

Assays:
Type in all cases: in vivo
[1] = system: giant foxtail (Setaria faberii); assay: Test A postemergence; conditions: Setaria faberi, post-emergence, 240 h, Postemergence, read-out: Foxtail, Giant plant response rating (0 to 100 scale); for pest or weed control at 125 g/ha: 125 g ai/ha, visual rating about 10 d after treatment; for pest or weed control at 31 g/ha: 31 g ai/ha, 0 is no effect, 100 is complete control
In short: (§1)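 Compounds were formulated in a non-phytotoxic solvent mixture with surfactant and applied as a preemergence directed soil spray after seeding, or sprayed postemergence over plants 2 to 10 cm tall at the one- to two-leaf stage. Evaluation after about 10 d compared treated with untreated controls, using a scale from 0 (no effect) to 100 (complete control).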

[2] = system: ryegrass, Italian (Italian ryegrass, Lolium multiflorum); assay: Test A postemergence; conditions: Lolium multiflorum, post-emergence, 240 h, Postemergence, read-out: Ryegrass, Italian plant response rating (0 to 100 scale); for pest or weed control at 125 g/ha: 125 g ai/ha, visual rating about 10 d after treatment; for pest or weed control at 31 g/ha: 31 g ai/ha, 0 is no effect, 100 is complete control
In short: as §1

[3] = system: pigweed (Amaranthus retroflexus); assay: Test A postemergence; conditions: Amaranthus retroflexus, post-emergence, 240 h, Postemergence, read-out: Pigweed plant response rating (0 to 100 scale); for pest or weed control at 125 g/ha: 125 g ai/ha, visual rating about 10 d after treatment; for pest or weed control at 31 g/ha: 31 g ai/ha, 0 is no effect, 100 is complete control
In short: as §1

Kochia (Kochia scoparia) [4] = assay: Test A postemergence; conditions: Bassia scoparia, post-emergence, 240 h, Postemergence, read-out: Kochia plant response rating (0 to 100 scale); for pest or weed control at 125 g/ha: 125 g ai/ha, visual rating about 10 d after treatment; for pest or weed control at 31 g/ha: 31 g ai/ha, 0 is no effect, 100 is complete control
In short: as §1

[5] = system: wheat (Triticum aestivum); assay: Test A postemergence; conditions: Triticum aestivum, post-emergence, 240 h, Postemergence, read-out: Wheat plant response rating (0 to 100 scale); for plant injury at 125 g/ha: 125 g ai/ha, visual rating about 10 d after treatment; for plant injury at 31 g/ha: 31 g ai/ha, 0 is no effect, 100 is complete control
In short: as §1

corn (Zea mays) = assay: Test A postemergence; conditions: Zea mays, post-emergence, 240 h, Postemergence, read-out: Corn plant response rating (0 to 100 scale); for plant injury at 125 g/ha: 125 g ai/ha, visual rating about 10 d after treatment; for plant injury at 31 g/ha: 31 g ai/ha, 0 is no effect, 100 is complete control
In short: as §1

[6] = system: Galium (catchweed bedstraw, Galium aparine); assay: Test A postemergence; conditions: Galium, post-emergence, 240 h, Postemergence, read-out: Galium plant response rating (0 to 100 scale); for pest or weed control at 125 g/ha: 125 g ai/ha, visual rating about 10 d after treatment; for pest or weed control at 31 g/ha: 31 g ai/ha, 0 is no effect, 100 is complete control
In short: as §1

[7] = system: barnyardgrass (Echinochloa crus-galli); assay: Test A postemergence; conditions: Echinochloa crus-galli, post-emergence, 240 h, Postemergence; for pest or weed control at 125 g/ha: 125 g ai/ha, visual rating about 10 d after treatment, read-out: Barnyardgrass plant response rating (0 to 100 scale, 0 no effect, 100 complete control); for pest or weed control at 31 g/ha: 31 g ai/ha, 0 is no effect, 100 is complete control, read-out: Barnyardgrass plant response rating (0 to 100 scale)
In short: as §1

[8] = system: blackgrass (Alopecurus myosuroides); assay: Test A postemergence; conditions: Alopecurus myosuroides, post-emergence, 240 h, Postemergence, read-out: Blackgrass plant response rating (0 to 100 scale); for pest or weed control at 125 g/ha: 125 g ai/ha, visual rating about 10 d after treatment; for pest or weed control at 31 g/ha: 31 g ai/ha, 0 is no effect, 100 is complete control
In short: as §1

[9] = system: ragweed (common ragweed, Ambrosia elatior); assay: Test A postemergence; conditions: Ambrosia artemisiifolia, post-emergence, 240 h, Postemergence, read-out: Ragweed plant response rating (0 to 100 scale); for pest or weed control at 125 g/ha: 125 g ai/ha, visual rating about 10 d after treatment; for pest or weed control at 31 g/ha: 31 g ai/ha, 0 is no effect, 100 is complete control
In short: as §1

[10] = system: ducksalad (Heteranthera limosa); assay: Test B flooded paddy test; conditions: Heteranthera limosa, 250 g ai/ha, Flood; 0 to 100 scale where 0 is no effect and 100 is complete control; read-out: Ducksalad plant response rating
In short: (§2)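 Evaluation by eye, against controls, occurred 13–15 d post-treatment in a greenhouse, using a 0 (no effect) to 100 (complete control) scale. Application was into the paddy water, 3 cm deep over the soil, on 2-leaf plants.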

[11] = system: sedge, umbrella (small-flower umbrella sedge, Cyperus difformis); assay: Test B flooded paddy test; conditions: Cyperus difformis, 250 g ai/ha, Flood; 0 to 100 scale where 0 is no effect and 100 is complete control; read-out: Sedge, Umbrella plant response rating
In short: as §2

rice (Oryra sativa) = assay: Test B flooded paddy test; conditions: Oryza sativa, 250 g ai/ha, Flood; 0 to 100 scale where 0 is no effect and 100 is complete control; read-out: Rice plant response rating
In short: as §2

[12] = system: barnyardgrass (Echinochloa crus-galli); assay: Test B flooded paddy test; conditions: Echinochloa crus-galli, 250 g ai/ha, Flood; 0 to 100 scale where 0 is no effect and 100 is complete control; read-out: Barnyardgrass plant response rating
In short: as §2

[13] = system: giant foxtail (Setaria faberii); assay: Test A preemergence; conditions: Setaria faberi, pre-emergence, 240 h, 0 to 100 scale where 0 is no effect and 100 is complete control, read-out: Foxtail, Giant plant response rating; for pest or weed control at 31 g/ha: 31 g ai/ha, Preemergence; for pest or weed control at 125 g/ha: 125 g ai/ha, preemergence, visual injury rating, approximately 10 d
In short: as §1

[14] = system: ryegrass, Italian (Italian ryegrass, Lolium multiflorum); assay: Test A preemergence; conditions: Lolium multiflorum, pre-emergence, 240 h, 0 to 100 scale where 0 is no effect and 100 is complete control, read-out: Ryegrass, Italian plant response rating; for pest or weed control at 31 g/ha: 31 g ai/ha, Preemergence; for pest or weed control at 125 g/ha: 125 g ai/ha, preemergence, visual injury rating, approximately 10 d
In short: as §1

[15] = system: pigweed (Amaranthus retroflexus); assay: Test A preemergence; conditions: Amaranthus retroflexus, pre-emergence, 240 h, 0 to 100 scale where 0 is no effect and 100 is complete control, read-out: Pigweed plant response rating; for pest or weed control at 31 g/ha: 31 g ai/ha, Preemergence; for pest or weed control at 125 g/ha: 125 g ai/ha, preemergence, visual injury rating, approximately 10 d
Kochia (Kochia scoparia) [16] = assay: Test A preemergence; conditions: Bassia scoparia, pre-emergence, 240 h, 0 to 100 scale where 0 is no effect and 100 is complete control, read-out: Kochia plant response rating; for pest or weed control at 31 g/ha: 31 g ai/ha, Preemergence; for pest or weed control at 125 g/ha: 125 g ai/ha, preemergence, visual injury rating, approximately 10 d
In short: as §1

[17] = system: barnyardgrass (Echinochloa crus-galli); assay: Test A preemergence; conditions: Echinochloa crus-galli, pre-emergence, 240 h, 0 to 100 scale where 0 is no effect and 100 is complete control, read-out: Barnyardgrass plant response rating; for pest or weed control at 31 g/ha: 31 g ai/ha, Preemergence; for pest or weed control at 125 g/ha: 125 g ai/ha, preemergence, visual injury rating, approximately 10 d
In short: as §1

[18] = system: ragweed (common ragweed, Ambrosia elatior); assay: Test A preemergence; conditions: Ambrosia artemisiifolia, pre-emergence, 240 h, 0 to 100 scale where 0 is no effect and 100 is complete control, read-out: Ragweed plant response rating; for pest or weed control at 31 g/ha: 31 g ai/ha, Preemergence; for pest or weed control at 125 g/ha: 125 g ai/ha, preemergence, visual injury rating, approximately 10 d
In short: as §1

| SMILES | pest or weed control at 125 g/ha [1] | pest or weed control at 31 g/ha [1] | pest or weed control at 125 g/ha [2] | pest or weed control at 31 g/ha [2] | pest or weed control at 125 g/ha [3] | pest or weed control at 31 g/ha [3] | pest or weed control at 125 g/ha (Kochia (Kochia scoparia) [4]) | pest or weed control at 31 g/ha (Kochia (Kochia scoparia) [4]) | plant injury at 125 g/ha [5] | plant injury at 31 g/ha [5] | plant injury at 125 g/ha (corn (Zea mays)) | plant injury at 31 g/ha (corn (Zea mays)) | pest or weed control at 125 g/ha [6] | pest or weed control at 31 g/ha [6] | pest or weed control at 125 g/ha [7] | pest or weed control at 31 g/ha [7] | pest or weed control at 125 g/ha [8] | pest or weed control at 31 g/ha [8] | pest or weed control at 125 g/ha [9] | pest or weed control at 31 g/ha [9] | other results |
| --- | --- | --- | --- | --- | --- | --- | --- | --- | --- | --- | --- | --- | --- | --- | --- | --- | --- | --- | --- | --- | --- |
| CN1C[C@H](c2cc(Cl)cc(Cl)c2)[C@@H](C(=O)Nc2cccc(F)c2F)C1=O [Compound 1270] | 80% | 60% | 30% | 0% | 60% | 40% | 60% | 0% | 40% | 0% | 20% | 0% | 70% | 60% | 90% | 90% | 40% | 0% | 0% | 0% | pest or weed control at 250 g/ha [10]: 80%; pest or weed control at 250 g/ha [11]: 0%; pest or weed control at 250 g/ha (rice (Oryra sativa)): 15%; pest or weed control at 250 g/ha [12]: 60%; pest or weed control at 31 g/ha [13]: 90%; pest or weed control at 125 g/ha [13]: 90%; pest or weed control at 31 g/ha [14]: 0%; pest or weed control at 125 g/ha [14]: 40%; pest or weed control at 31 g/ha [15]: 0%; pest or weed control at 125 g/ha [15]: 40%; pest or weed control at 31 g/ha (Kochia (Kochia scoparia) [16]): 40%; pest or weed control at 125 g/ha (Kochia (Kochia scoparia) [16]): 60%; pest or weed control at 31 g/ha [17]: 70%; pest or weed control at 125 g/ha [17]: 90%; pest or weed control at 31 g/ha [18]: 0%; pest or weed control at 125 g/ha [18]: 30% |
| CN1C[C@H](c2csc3c2CCCC3)[C@@H](C(=O)Nc2ccccc2F)C1=O [Compound 1275] | 70% | 20% | 0% | 0% | 0% | 0% | 0% | 0% | 0% | 0% | 0% | 0% | 0% | 0% | 90% | 30% | 0% | 0% | 0% | 0% | pest or weed control at 250 g/ha [10]: 90%; pest or weed control at 250 g/ha [11]: 0%; pest or weed control at 250 g/ha (rice (Oryra sativa)): 20%; pest or weed control at 250 g/ha [12]: 75%; pest or weed control at 31 g/ha [13]: 90%; pest or weed control at 125 g/ha [13]: 100%; pest or weed control at 31 g/ha [14]: 0%; pest or weed control at 125 g/ha [14]: 0%; pest or weed control at 31 g/ha [15]: 0%; pest or weed control at 125 g/ha [15]: 0%; pest or weed control at 31 g/ha (Kochia (Kochia scoparia) [16]): 0%; pest or weed control at 125 g/ha (Kochia (Kochia scoparia) [16]): 20%; pest or weed control at 31 g/ha [17]: 70%; pest or weed control at 125 g/ha [17]: 100%; pest or weed control at 31 g/ha [18]: 0%; pest or weed control at 125 g/ha [18]: 20% |
